Reference: article PMC4551907, “Identification of human telomerase assembly inhibitors enabled by a novel method to produce hTERT” (Nucleic Acids Research, 2015)

How the values were obtained:
hTERT [1] = target: T1, hTERT (Homo sapiens, UniProt O14746); assay: RT-TRAP and direct telomerase assay with reconstituted purified hTERT + hTR; preincubation with hTERT vs hTR; dilution (reversibility) test; format: biochemical; design: gene TERT; MBP-hTERT, purified from P. pastoris
hTERT [2] = target: T1, hTERT; assay: RT-TRAP with recombinant telomerase ([…]); format: biochemical; design: gene TERT

T1 sequence (O14746 whole entry): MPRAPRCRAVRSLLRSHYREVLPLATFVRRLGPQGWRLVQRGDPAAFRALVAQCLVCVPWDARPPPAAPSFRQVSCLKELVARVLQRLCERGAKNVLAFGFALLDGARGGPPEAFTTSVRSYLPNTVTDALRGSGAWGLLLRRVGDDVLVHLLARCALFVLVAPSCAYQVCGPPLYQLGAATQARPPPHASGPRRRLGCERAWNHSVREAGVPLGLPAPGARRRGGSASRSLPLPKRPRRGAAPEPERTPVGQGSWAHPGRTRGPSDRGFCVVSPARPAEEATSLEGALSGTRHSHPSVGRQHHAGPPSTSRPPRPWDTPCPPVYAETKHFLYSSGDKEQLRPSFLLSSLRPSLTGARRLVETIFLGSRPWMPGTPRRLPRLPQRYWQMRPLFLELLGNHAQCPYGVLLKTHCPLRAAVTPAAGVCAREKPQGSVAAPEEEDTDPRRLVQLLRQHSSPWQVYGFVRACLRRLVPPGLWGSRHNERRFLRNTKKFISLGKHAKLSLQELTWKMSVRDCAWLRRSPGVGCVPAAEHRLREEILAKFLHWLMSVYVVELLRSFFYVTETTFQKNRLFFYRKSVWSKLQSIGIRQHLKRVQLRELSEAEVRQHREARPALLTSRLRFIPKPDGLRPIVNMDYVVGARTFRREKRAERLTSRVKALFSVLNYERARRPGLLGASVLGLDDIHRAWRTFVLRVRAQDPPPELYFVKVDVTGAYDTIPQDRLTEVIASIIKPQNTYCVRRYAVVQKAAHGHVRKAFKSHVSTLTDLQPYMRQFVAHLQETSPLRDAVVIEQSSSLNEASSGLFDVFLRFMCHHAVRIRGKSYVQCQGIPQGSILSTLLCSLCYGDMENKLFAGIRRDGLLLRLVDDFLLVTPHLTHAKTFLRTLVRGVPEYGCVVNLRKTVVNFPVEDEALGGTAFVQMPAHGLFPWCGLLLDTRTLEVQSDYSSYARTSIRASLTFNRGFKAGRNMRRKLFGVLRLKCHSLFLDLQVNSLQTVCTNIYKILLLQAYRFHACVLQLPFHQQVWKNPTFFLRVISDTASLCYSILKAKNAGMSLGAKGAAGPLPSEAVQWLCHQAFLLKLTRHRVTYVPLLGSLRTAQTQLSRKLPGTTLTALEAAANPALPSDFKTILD

IC50 (hTERT [1]) [µM] | IC50 (hTERT [2]) [µM] | Structure (SMILES)
0.5 ± 0.2 |  | NC1CC(N)C(O[C@H]2O[C@H](CNC(=O)[C@@H](N)CCCCNCc3ccc4nc5ccc6nc7ccccc7cc6c5cc4c3)[C@@H](O)C[C@H]2N)C(O)C1O[C@H]1O[C@H](CO)[C@@H](O)[C@H](N)[C@H]1O (some centres unmarked) [TAI1]
 | ~0.08 | C/C(=C\C(=O)Nc1ccccc1C(=O)O)c1ccc2ccccc2c1 [BIBR1532]
